Tests used:
[1] = target: CDK4-cyclinD1 (Homo sapiens, UniProt P11802); conditions: 0.1 µM; binder
[2] = target: JAK3(JH1domain-catalytic) (Homo sapiens, UniProt P52333); conditions: 0.1 µM; binder
[3] = target: GCN2(Kin.Dom.2,S808G) (Homo sapiens, UniProt Q9P2K8, S808G); conditions: 0.1 µM; binder
[4] = target: JAK1(JH2domain-pseudokinase) (Homo sapiens, UniProt P23458); conditions: 0.1 µM; binder
[5] = target: RPS6KA4(Kin.Dom.2-C-terminal) (Homo sapiens, UniProt O75676); conditions: 0.1 µM; binder
[6] = target: PKNB (M. tuberculosis) (Mycobacterium tuberculosis, UniProt P9WI81); conditions: 0.1 µM; binder
[7] = target: RSK2(Kin.Dom.2-C-terminal) (Homo sapiens, UniProt P51812); conditions: 0.1 µM; binder
Sequence of RSK2(Kin.Dom.2-C-terminal) (P51812 whole entry): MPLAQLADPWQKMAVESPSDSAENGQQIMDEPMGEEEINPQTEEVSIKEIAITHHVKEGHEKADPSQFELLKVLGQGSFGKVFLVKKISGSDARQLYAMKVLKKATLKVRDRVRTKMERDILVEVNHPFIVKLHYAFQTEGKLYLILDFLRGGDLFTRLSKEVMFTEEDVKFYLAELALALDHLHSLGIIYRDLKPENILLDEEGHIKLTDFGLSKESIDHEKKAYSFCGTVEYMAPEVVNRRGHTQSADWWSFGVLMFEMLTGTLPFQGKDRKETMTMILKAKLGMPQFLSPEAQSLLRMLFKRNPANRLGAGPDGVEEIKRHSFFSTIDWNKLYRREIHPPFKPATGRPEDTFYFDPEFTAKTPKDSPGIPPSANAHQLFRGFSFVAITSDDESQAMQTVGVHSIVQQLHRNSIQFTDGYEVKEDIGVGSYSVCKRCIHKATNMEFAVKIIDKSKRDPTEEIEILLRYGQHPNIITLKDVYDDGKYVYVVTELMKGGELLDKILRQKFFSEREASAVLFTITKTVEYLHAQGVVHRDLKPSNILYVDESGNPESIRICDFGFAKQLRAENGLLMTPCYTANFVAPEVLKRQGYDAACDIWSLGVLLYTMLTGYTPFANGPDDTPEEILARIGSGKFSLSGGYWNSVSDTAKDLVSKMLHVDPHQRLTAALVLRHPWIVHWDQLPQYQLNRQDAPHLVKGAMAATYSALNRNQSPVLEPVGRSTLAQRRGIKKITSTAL

[8] = target: PFCDPK1 (P. falciparum) (Plasmodium falciparum, UniProt P62344); conditions: 0.1 µM; binder
[9] = target: RPS6KA4(Kin.Dom.1-N-terminal) (Homo sapiens, UniProt O75676); conditions: 0.1 µM; binder
[10] = target: ANKK1 (Homo sapiens, UniProt Q8NFD2); conditions: 1 µM; binder
[11] = target: CLK1 (Homo sapiens, UniProt P49759); conditions: 1 µM; binder
[12] = target: MKNK1 (Homo sapiens, UniProt Q9BUB5); conditions: 1 µM; binder
[13] = target: MYLK (Homo sapiens, UniProt Q15746); conditions: 1 µM; binder
[14] = target: NIM1 (Homo sapiens, UniProt Q8IY84); conditions: 1 µM; binder
Sequence of NIM1 (Q8IY84 whole entry): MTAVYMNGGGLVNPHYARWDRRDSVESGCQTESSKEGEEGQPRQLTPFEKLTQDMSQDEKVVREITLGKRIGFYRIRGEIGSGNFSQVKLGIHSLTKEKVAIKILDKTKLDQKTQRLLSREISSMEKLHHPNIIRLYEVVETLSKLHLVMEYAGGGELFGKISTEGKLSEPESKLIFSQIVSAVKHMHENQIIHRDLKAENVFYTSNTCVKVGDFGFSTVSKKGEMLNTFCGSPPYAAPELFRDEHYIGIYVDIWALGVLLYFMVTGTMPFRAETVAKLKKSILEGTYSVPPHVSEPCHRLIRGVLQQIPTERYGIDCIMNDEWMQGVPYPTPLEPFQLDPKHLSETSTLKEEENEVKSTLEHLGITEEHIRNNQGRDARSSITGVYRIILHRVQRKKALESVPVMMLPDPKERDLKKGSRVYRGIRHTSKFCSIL

[15] = target: PIK3C2B (Homo sapiens, UniProt O00750); conditions: 1 µM; binder
[16] = target: PIK3C2G (Homo sapiens, UniProt O75747); conditions: 1 µM; binder
Sequence of PIK3C2G (O75747 whole entry): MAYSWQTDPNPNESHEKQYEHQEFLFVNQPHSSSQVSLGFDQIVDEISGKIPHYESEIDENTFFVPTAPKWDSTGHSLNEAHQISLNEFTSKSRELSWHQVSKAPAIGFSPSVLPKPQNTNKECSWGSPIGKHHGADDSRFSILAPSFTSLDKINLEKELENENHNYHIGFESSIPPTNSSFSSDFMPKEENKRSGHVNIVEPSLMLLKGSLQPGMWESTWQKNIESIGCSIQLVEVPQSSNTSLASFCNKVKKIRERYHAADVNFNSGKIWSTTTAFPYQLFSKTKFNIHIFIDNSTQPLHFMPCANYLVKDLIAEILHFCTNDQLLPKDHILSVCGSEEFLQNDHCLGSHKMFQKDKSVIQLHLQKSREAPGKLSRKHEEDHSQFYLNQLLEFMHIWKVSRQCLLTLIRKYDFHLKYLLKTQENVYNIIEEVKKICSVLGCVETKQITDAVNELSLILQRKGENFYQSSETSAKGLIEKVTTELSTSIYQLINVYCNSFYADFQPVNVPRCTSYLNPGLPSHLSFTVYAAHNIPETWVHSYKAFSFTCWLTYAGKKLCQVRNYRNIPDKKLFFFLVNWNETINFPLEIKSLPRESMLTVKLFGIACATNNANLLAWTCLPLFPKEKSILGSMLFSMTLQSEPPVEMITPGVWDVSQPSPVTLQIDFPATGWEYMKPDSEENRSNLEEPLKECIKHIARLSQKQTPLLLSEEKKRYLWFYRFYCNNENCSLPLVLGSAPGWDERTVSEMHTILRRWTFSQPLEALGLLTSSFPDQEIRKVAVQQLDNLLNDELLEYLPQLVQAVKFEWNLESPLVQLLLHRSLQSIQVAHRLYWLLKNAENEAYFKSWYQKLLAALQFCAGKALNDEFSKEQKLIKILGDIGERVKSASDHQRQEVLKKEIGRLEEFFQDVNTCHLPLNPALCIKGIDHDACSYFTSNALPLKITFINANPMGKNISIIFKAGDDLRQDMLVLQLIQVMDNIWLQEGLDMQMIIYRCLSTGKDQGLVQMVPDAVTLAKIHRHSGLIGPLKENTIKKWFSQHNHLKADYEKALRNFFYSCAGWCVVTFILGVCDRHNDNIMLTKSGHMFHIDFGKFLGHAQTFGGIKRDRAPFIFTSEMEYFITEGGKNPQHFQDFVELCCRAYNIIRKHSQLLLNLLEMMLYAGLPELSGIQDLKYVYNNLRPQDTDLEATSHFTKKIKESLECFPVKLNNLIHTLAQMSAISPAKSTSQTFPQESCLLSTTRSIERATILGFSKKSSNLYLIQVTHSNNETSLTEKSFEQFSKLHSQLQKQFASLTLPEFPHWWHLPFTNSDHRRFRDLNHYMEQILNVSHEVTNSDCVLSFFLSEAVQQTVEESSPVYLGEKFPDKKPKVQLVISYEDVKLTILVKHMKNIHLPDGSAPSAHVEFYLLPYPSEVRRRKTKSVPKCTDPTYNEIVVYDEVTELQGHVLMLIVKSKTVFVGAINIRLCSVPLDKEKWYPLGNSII

[17] = target: PIK3CA(H1047L) (Homo sapiens, UniProt P42336, H1047L); conditions: 1 µM; binder
[18] = target: PIK3CA(Q546K) (Homo sapiens, UniProt P42336, Q546K); conditions: 1 µM; binder
[19] = target: PNCK (Homo sapiens, UniProt Q6P2M8); conditions: 1 µM; binder
Sequence of PNCK (Q6P2M8 whole entry): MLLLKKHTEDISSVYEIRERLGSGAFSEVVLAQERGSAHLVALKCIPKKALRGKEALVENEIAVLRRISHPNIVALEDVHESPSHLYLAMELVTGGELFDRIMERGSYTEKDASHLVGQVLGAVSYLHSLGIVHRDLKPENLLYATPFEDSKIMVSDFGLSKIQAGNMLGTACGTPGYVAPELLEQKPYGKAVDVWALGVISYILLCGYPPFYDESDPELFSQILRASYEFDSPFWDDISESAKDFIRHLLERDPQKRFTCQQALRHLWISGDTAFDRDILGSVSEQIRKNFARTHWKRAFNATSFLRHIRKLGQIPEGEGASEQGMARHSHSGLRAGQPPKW

[20] = target: PRKCE (Homo sapiens, UniProt Q02156); conditions: 1 µM; binder
[21] = target: RET (Homo sapiens, UniProt P07949); conditions: 1 µM; binder
[22] = target: SGK3 (Homo sapiens, UniProt Q96BR1); conditions: 1 µM; binder
[23] = target: TGFBR2 (Homo sapiens, UniProt P37173); conditions: 1 µM; binder
[24] = target: T1, DYRK1B (Homo sapiens, UniProt Q9Y463); assay: biochemical; conditions: read-out: Percent Control
T1 sequence (Q9Y463 whole entry): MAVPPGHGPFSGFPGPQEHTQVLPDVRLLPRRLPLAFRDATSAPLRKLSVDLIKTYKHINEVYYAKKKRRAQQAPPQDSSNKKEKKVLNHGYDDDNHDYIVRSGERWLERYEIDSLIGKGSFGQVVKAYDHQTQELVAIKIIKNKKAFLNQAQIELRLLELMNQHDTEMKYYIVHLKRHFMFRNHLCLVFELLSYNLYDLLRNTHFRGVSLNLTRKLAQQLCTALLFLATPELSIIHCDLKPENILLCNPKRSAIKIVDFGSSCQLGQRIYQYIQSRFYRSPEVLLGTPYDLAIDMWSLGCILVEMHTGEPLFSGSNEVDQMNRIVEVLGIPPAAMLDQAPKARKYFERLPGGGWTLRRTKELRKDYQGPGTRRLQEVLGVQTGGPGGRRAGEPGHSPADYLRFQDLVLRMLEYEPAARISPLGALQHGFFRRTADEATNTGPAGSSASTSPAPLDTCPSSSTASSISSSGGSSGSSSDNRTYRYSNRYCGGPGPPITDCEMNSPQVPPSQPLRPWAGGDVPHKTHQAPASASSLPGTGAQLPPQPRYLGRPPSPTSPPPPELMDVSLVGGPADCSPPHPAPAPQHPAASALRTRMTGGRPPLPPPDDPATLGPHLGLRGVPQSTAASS

[25] = target: T2, LTK (Homo sapiens, UniProt P29376); assay: biochemical; conditions: read-out: Percent Control
T2 sequence (P29376 whole entry): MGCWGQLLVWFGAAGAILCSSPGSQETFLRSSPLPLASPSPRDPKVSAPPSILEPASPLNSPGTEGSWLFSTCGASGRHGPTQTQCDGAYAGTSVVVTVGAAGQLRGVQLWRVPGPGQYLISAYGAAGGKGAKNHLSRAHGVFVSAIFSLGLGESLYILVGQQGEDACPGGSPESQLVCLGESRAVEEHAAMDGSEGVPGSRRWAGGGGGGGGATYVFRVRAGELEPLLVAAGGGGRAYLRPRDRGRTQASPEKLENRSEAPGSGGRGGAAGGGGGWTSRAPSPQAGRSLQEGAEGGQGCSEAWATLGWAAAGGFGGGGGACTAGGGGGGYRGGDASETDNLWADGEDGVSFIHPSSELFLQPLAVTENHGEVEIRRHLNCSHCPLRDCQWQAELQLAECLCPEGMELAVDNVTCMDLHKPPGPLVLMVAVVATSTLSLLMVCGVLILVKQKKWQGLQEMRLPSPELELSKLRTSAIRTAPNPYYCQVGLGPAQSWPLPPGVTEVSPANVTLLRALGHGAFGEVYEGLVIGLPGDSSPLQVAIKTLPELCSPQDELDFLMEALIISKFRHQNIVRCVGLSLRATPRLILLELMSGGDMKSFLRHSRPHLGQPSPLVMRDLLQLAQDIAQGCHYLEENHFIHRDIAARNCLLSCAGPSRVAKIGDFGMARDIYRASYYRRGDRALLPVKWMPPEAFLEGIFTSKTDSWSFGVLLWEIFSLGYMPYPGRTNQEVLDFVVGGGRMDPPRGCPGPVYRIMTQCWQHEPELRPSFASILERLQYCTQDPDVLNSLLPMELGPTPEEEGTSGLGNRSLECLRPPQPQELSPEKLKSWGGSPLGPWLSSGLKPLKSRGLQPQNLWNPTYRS

[26] = target: T3, STK33 (Homo sapiens, UniProt Q9BYT3); assay: biochemical; conditions: read-out: Percent Control
T3 sequence (Q9BYT3 whole entry): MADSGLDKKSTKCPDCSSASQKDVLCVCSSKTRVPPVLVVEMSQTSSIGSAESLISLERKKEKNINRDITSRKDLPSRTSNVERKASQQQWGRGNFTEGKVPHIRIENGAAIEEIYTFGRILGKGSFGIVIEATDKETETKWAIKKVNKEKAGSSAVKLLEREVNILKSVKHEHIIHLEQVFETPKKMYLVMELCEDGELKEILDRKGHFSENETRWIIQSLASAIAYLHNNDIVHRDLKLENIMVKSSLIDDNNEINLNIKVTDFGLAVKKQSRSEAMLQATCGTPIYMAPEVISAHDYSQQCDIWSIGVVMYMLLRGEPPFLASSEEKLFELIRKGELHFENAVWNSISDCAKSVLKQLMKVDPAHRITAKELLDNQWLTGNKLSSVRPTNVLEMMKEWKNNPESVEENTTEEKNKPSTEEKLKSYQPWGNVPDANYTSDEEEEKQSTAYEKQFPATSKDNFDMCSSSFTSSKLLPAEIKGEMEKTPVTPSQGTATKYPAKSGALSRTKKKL

[27] = target: T1, DYRK1B; assay: biochemical; conditions: read-out: Percent Control; remark: listed apart in the source
[28] = target: T2, LTK; assay: biochemical; conditions: read-out: Percent Control; remark: listed apart in the source
[29] = target: T3, STK33; assay: biochemical; conditions: read-out: Percent Control; remark: listed apart in the source

With CNc1ncc2cc(-c3ccc(-c4cccc(C)n4)cc3Cl)c(=O)n(C[C@H]3OC[C@H](N)CO3)c2n1 [compound 6, G-5555] the “Percent Control” value [1] was 100%, the “Percent Control” value [2] was 100% and the “Percent Control” value [3] was 76%. For the same compound, the “Percent Control” value [4] was 92%, the “Percent Control” value [5] was 100% and the “Percent Control” value [6] was 100%. The “Percent Control” value [7] was 83%, the “Percent Control” value [8] was 9.1% and the “Percent Control” value [9] was 100%. For the same compound, the “Percent Control” value [10] was 87%, the “Percent Control” value [11] was 100% and the “Percent Control” value [12] was 100%. The “Percent Control” value [13] was 85%, the “Percent Control” value [14] was 100% and the “Percent Control” value [15] was 100%. For the same compound, the “Percent Control” value [16] was 100%, the “Percent Control” value [17] was 100% and the “Percent Control” value [18] was 100%. For the same compound, the “Percent Control” value [19] was 30%, the “Percent Control” value [20] was 71% and the “Percent Control” value [21] was 94%. For the same compound, the “Percent Control” value [22] was 60%, the “Percent Control” value [23] was 100% and the remaining activity at 0.1 µM [24] was 61%. It also gave a remaining activity at 0.1 µM [25] of 28%, a remaining activity at 0.1 µM [26] of 100% and a remaining activity at 1 µM [27] of 49%. It also gave a remaining activity at 1 µM [28] of 4.1% and a remaining activity at 1 µM [29] of 75%.

Source: paper doi:10.1101/2021.04.08.439011v1 (biorxiv, 2021)
